Test results reported in patent publication US20250090501A1, “METHODS OF TREATING GUT MOTILITY DISORDERS” (THE REGENTS OF THE UNIVERSITY OF CALIFORNIA, priority 2022, published 2025).

How the values were obtained:
[1] = system: hESC-derived 2D ENS cultures (NOS1+ cells); assay: High-throughput screening to identify compounds that enrich NO neurons; type: cell-based, human; parameters: dose or concentration left out as unconfirmed; details: 1694 inhibitors, treated D15-D20, read at day 40
Description: Day 15 H9 hESC-derived enteric crestospheres were dissociated into single cells (accutase, Stemcell Technologies, 07920, 30 min, 37° C.), resuspended in ENC medium and were transferred into 384-well plates. Plates were incubated for 2 hours for cells to attach. Using a pin tool, drugs from a library of 1694 inhibitors (SelleckChem, USA) were added to wells at the final concentration of […] and plates were incubated with drugs until D20, when media were changed to ENC with no drugs. At day 40, cells were fixed, stained for NOS1 and imaged using InCellAnalyzer 2000 (GE Healthcare, USA). Hits were selected based on the fold increase of the percentage of NOS1^+ cells relative to the wells treated with vehicle (DMSO).
(§1) To identify compounds that induce NO neuron differentiation, enteric crestospheres were treated with 1694 compounds in the Selleck inhibitor Library™ and 12 hit compounds that increased the proportion of NOS1^+ neurons by at least eight folds were identified (FIG. 7A and FIG. 8A-B). […] After clustering the predicted protein targets, common patterns emerged for a subset of compounds.

[2] = system: stage 1 NOS1::GFP enteric ganglioids; assay: NO neuron induction in stage 1 enteric ganglioids (flow cytometry); type: cell-based, human; details: for NO neuron induction / NO neuron proportions in response to RTK ligands: stage 1 enteric ganglioids
Description: List of antibodies and working dilutions is not shown.
as §1
To determine the mechanism by which PP121 induced NO neuron enrichment in ganglioids, a combination of pharmacological and genetic approaches was used. […] The crestosphere snRNA-seq analysis confirmed the expression of PDGFRA, PDGFRB, ERBB2, and ERBB3 while the mRNA for VEGFRs were not detectable (FIG. 7L). The induction efficiency of NO neurons was evaluated in response to PDGF (PDGFR agonist), sunitinib (PDGFR and VEGFR antagonist), NRG1 (ERBBs agonist), and sapitinib (ERBBs antagonist) (FIG. 7M). […] To genetically confirm the role of PDGFR signaling in NO neuron induction, CRISPR-Cas9 was used to knock-out PDGFRA and PDGFRB in the enteric crestospheres and the percentage of NO neurons in stage 1 ganglioids was analyzed. NO neurons were […] in both PDGFRA and PDGFRB knock-out cultures further confirming the PP121 mechanism of action (FIG. 7O-P).

[3] = system: stage 1 enteric ganglioids; assay: snRNA-seq comparison of PP121 treated vs control enteric ganglioids; type: cell-based, human; details: snRNA-seq sub-clustering
Description: All tubes and pipet tips used for cell harvesting were pre-treated with 1% BSA in 1×PBS. Cells were dissociated in Accutase (Stem Cell) at 37° C., in 10 min increments, with end-to-end rotation, until single cell suspension was obtained. The cells were washed in Cell Staining Buffer (Biolegend) and stained with TotalSeq HTO antibodies for 30 min on ice. The cells were washed twice in Cell Staining Buffer and filtered through a 40 μm pipette tip strainer (BelArt). […] The libraries were sequenced on Illumina NovaSeq sequencer in the Center for Advanced Technologies (UCSF). The cell feature matrices were extracted using kallisto/bustools, and demultiplexed using seurat.
To compare the gene expression of control and PP121 treated cell types, neuronal subtypes and NO neuron subtypes, a subset dataset of each cell type and subtype annotation was first created. For each subset, the non-imputed average expression of all genes was then calculated for the control and PP121 treated cells using the “AverageExpression” function and natural log transformed for plotting. R2 values comparing the control and PP121 natural log expression values were calculated from linear modeling using the “y˜x” formula.
To compare PP121 treated and untreated stage 1 enteric ganglioids in single cell resolution, snRNA-seq was performed, and both datasets combined.

PDGFRs = details: cited from earlier work
VEGFRs = details: cited from earlier work
EGFRs = details: cited from earlier work
mouse colon = assay: Ex vivo colonic motility assay (organ bath, GIMM); details: for CMMC intervals relative to the untreated condition: first experiment, five consecutive 10-min acquisitions, interval at 75th percentile
Description: Preparation of solutions: Krebs buffer [NaCl (117 mM), KCl (4.7 mM), NaH2PO4 (1.2 mM), MgCl2 (1.5 mM), CaCl2·2H2O (2.5 mM), NaHCO3 (25 mM), Glucose (11 mM), pH 7.4] was placed in a 37° C. water bath and aerated with 95% 02 and 5% CO2 (carbogen) gas mixture for at least 30 minutes prior to experiment onset. “Drug” treatment solutions were freshly prepared by adding the drug compound into Krebs buffer before starting data acquisition. The solution with NOS1 inhibitor was prepared by adding N omega-nitro-L-arginine methyl ester hydrochloride (L-NAME) to the drug solutions making “Drug+L-NAME”.
Tissue dissection: For each experimental replicate, a pair of 8-week-old wild type C57BL6 mice (male) were placed in a sealed chamber and euthanized using CO2 asphyxiation followed by cervical dislocation. The lower GI tract (cecum and colon) was removed and immediately transferred to 37° C. carbogenated Krebs buffer, with the fecal matter still inside. Adipose tissue and mesentery were removed before placing the colons in the organ bath reservoir of gastrointestinal motility monitor (GIMM) apparatus.
Experimental set-up and procedure: GIMM was designed based on a previously reported model (Swaminathan et al., 2016). The organ reservoir of GIMM has two-chambers for recording two specimens simultaneously. It is connected to working solutions kept at 37° C. via a 4-channel peristaltic pump (WPI, PERIPRO-4LS). Lower GI tract was harvested and transferred to the organ bath with the Krebs buffer was flowing through. The cecum was pinned down at the proximal tip and the distal end of the colon was pinned through the serosa/mesentery. Five 10-min (for the first experiments) or sequential 6-min (for the sequential drug treatment in the presence and absence of L-NAME) videos were recorded using the IC capture software (Imaging Source) with a high resolution monochromatic firewire industrial camera (Imaging Source®, DMK41AF02) connected to a ⅔″ 16 mm f/1.4 C-Mount Fixed Focal Lens (Fujinon HF16SA1). While tissue in the control chamber was only exposed to Krebs solution, the order of solutions in the experimental chamber was: Krebs, drug compound, Krebs (6 min each), L-NAME (2 min), L-NAME in the presence of a drug compound (6 min) and Krebs (6 min). The chambers were cleaned after each acquisition.
Data and statistical analysis: VolumetryG9a was used to generate the spatiotemporal map (STM) of each acquisition (Spear et al., 2018). Slow waves (SW) and colonic migrating motor complexes (CMMC) data were generated from STMs. Statistical analyses were performed using PRISM.
For selected compounds, a more comprehensive and integrated target analysis was performed by combining reported experimental data (Binding DB) and computational methods (SEA, Carlsbad, Dinies, Swisstarget, Superdrug, Pubchem Bioassays, FIG. 2G). The effects of these compounds was tested on colonic motility in organ bath assays (FIG. 2H). In these assays, resected segments of mouse colon were maintained in a physiologic buffer to study motility patterns using video recording. In the first experiment the effect of all selected drug candidates was tested on mouse colonic motility, ex vivo (FIG. 2I). In each experiment, an untreated control and a drug-treated colon sample were tested side by side during five consecutive 10-min acquisitions. For each acquisition, instead of analyzing fecal outputs, which are generally variable, more sophisticated contraction analysis was performed by generating spatiotemporal maps from video data based on the changes in the colonic diameter over time, and used to calculate the rate of colonic migrating motor complexes (CMMC) and slow waves (SW).

[4] = system: stage 2 enteric ganglioid; details: flow cytometry, stage 2 enteric ganglioids
[5] = system: stage 1 enteric ganglioids; details: MEA
[6] = 6-min treatment, all five replicates

## Nc1ncnc2c1c(-c1cnc3[nH]ccc3c1)nn2C1CCCC1 [PP121]
[1]
  fold increase of the percentage of NOS1+ cells relative to vehicle (DMSO): highest % NOS1^+ fold increase in this subset of compounds
[2]; 2 μM PP121, five days at various time points, GFP signal
  NO neuron induction efficiency by treatment window: highest induction efficiency for cells treated during day 15-20
[2]; different PP121 concentrations at D15-D20, flow cytometry
  NO neuron induction efficiency, concentration dependence: dose-dependent effect
[3]
  abundance of neuronal subtypes: enriched cultures for neuronal subtypes EN D and H
PDGFRs
  inhibitory activity on PDGFRs: known inhibitory activity
VEGFRs
  inhibitory activity on VEGFRs: known inhibitory activity
EGFRs
  inhibitory activity on EGFRs: known inhibitory activity

## O=C1CCc2ccc(OCCCCN3CCN(c4cccc(Cl)c4Cl)CC3)cc2N1 [aripiprazole]
Mouse colon
  CMMC intervals relative to the untreated condition: promising effects on lowering CMMC intervals

## O=C1CCC[C@@H]2[C@H]3CCCN4CCC[C@@H](CN12)[C@@H]34 [matrine]
Mouse colon
  CMMC intervals relative to the untreated condition: promising effects on lowering CMMC intervals

## PDGF
[2]
  NO neuron induction / NO neuron proportions in response to RTK ligands: lower

## Cc1cccc([C@H](C)c2cnc[nH]2)c1C [dexmedetomidine]
Mouse colon; [6]
  average duration of LCEs: increasing trend
  total number of longitudinal contractile events (LCEs): decrease
Mouse colon; Krebs washout
  effects on LCEs after the drug removal: reversed
Mouse colon; L-NAME co-treatment
  effects on LCEs with L-NAME co-treatment: blocked
Mouse colon; dexmedetomidine+L-NAME simultaneously
  effect on CMMC intervals with L-NAME: absent
Mouse colon
  CMMC intervals relative to the untreated condition: promising effects on lowering CMMC intervals
Mouse colon; sequential 6-min treatments, five sample pairs, 1 μM, drug alone
  CMMC intervals: decreased CMMC intervals in four out of five colon samples

## CNC[C@H](O)c1ccc(O)c(O)c1 [Epinephrine, epinephrine]
[4]
  neuronal cFOS expression: induced neuronal cFOS expression
[5]
  electrical firing of ganglioid neurons: increased electrical firing

## Cc1cccc(C#Cc2ccccc2)n1 [MPEP]
Mouse colon
  CMMC intervals relative to the untreated condition: promising effects on lowering CMMC intervals

## CNC(=O)CN1CCC(Oc2cc3c(Nc4cccc(Cl)c4F)ncnc3cc2OC)CC1 [sapitinib]
[2]
  NO neuron induction / NO neuron proportions in response to RTK ligands: no significant effect
